Data: PubChem BioAssay AID977612 (Broad Institute, 2014)
Calls of active or inactive are those of the source.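 How the source made its calls: active means compounds lowering the signal whose fitted AC50 is at most twice their top tested dose; inconclusive means flat fit with 30 to 70% inhibition, or poor fit; inactive means the rest.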

Molecular target: Drosophila melanogaster bursicon receptor (rickets, LGR2)
Assay: inhibitors of bursicon-driven CRE reporter signaling – cell-based, HEK293, CRE-luciferase, luminescence, dry powder, dose response (AID 977612)
Conditions: bursicon-stimulated, antagonist luminescence; for activity change, negative = inhibition: at 35 µM (top of the series)

Row | Structure (SMILES) | activity change, negative = inhibition | AC50
1 | C[C@H](CO)N1C[C@H](C)[C@H](CN(C)C(=O)Nc2ccc(F)cc2)OCCCC[C@H](C)Oc2ccc(NC(=O)C3CCOCC3)cc2C1=O | inactive | 
2 | C[C@H](CO)N1C[C@H](C)[C@H](CN(C)C(=O)Nc2ccc(F)cc2)OCCCC[C@H](C)Oc2ccc(NC(=O)C3CC3)cc2C1=O | inactive | 
3 | C[C@H](CO)N1C[C@H](C)[C@H](CN(C)C(=O)Nc2ccccc2)OCCCC[C@H](C)Oc2ccc(NC(=O)NC3CCCCC3)cc2C1=O |  | 20.9 µM
4 | C[C@H](CO)N1C[C@H](C)[C@H](CN(C)C(=O)Nc2cccc3ccccc23)OCCCC[C@H](C)Oc2ccc(NC(=O)c3ccccc3)cc2C1=O |  | 22.8 µM
5 | COc1ccc(NC(=O)N(C)C[C@@H]2OCCCC[C@H](C)Oc3ccc(NC(=O)C4CCCCC4)cc3C(=O)N([C@H](C)CO)C[C@@H]2C)cc1 |  | 10.1 µM
6 | C[C@H](CO)N1C[C@H](C)[C@H](CN(C)C(=O)Nc2ccc3c(c2)OCO3)OCCCC[C@H](C)Oc2ccc(NC(=O)C3CCCCC3)cc2C1=O |  | 10.5 µM
7 | C[C@H](CO)N1C[C@H](C)[C@H](CN(C)C(=O)Nc2ccc(F)cc2)OCCCC[C@H](C)Oc2ccc(NC(=O)NC3CCCCC3)cc2C1=O |  | 21.4 µM
8 | CC(=O)Nc1ccc2c(c1)C(=O)N([C@H](C)CO)C[C@H](C)[C@H](CN(C)C(=O)Nc1ccc(F)cc1)OCCCC[C@H](C)O2 | inactive | 
9 | C[C@H](CO)N1C[C@H](C)[C@H](CN(C)C(=O)Nc2cccc3ccccc23)OCCCC[C@H](C)Oc2ccc(NC(=O)CCC(F)(F)F)cc2C1=O |  | 13.1 µM
10 | C[C@H]1CCCCO[C@@H](CN(C)C(=O)Nc2ccc(F)cc2)[C@@H](C)CN([C@@H](C)CO)C(=O)c2cc(NC(=O)C3CCCCC3)ccc2O1 |  | 11.4 µM
11 | C[C@H](CO)N1C[C@H](C)[C@H](CN(C)C(=O)Nc2ccc(C(F)(F)F)cc2)OCCCC[C@H](C)Oc2ccc(NC(=O)CCC(F)(F)F)cc2C1=O |  | 15 µM
12 | COc1ccc(NC(=O)N(C)C[C@@H]2OCCCC[C@H](C)Oc3ccc(NC(=O)NC4CCCCC4)cc3C(=O)N([C@H](C)CO)C[C@@H]2C)cc1 |  | 30.8 µM
13 | COc1ccc(S(=O)(=O)N(C)C[C@@H]2OCCCC[C@H](C)Oc3ccc(NS(=O)(=O)c4ccc(Cl)cc4)cc3C(=O)N([C@@H](C)CO)C[C@@H]2C)cc1 |  | 19.1 µM
14 | C[C@H](CO)N1C[C@H](C)[C@H](CN(C)C(=O)Nc2ccccc2)OCCCC[C@H](C)Oc2ccc(NC(=O)CCC(F)(F)F)cc2C1=O |  | 36.3 µM
15 | C[C@H](CO)N1C[C@H](C)[C@H](CN(C)C(=O)Nc2ccc3c(c2)OCO3)OCCCC[C@H](C)Oc2ccc(NC(=O)NC3CCCCC3)cc2C1=O |  | 31 µM
16 | CC(C)(C)c1ccc(-c2nc(-c3ccncc3)no2)cc1 | inactive | 
17 | C[C@H]1CCCCO[C@@H](CN(C)S(=O)(=O)c2ccc(Cl)cc2)[C@@H](C)CN([C@@H](C)CO)C(=O)c2cc(NC(=O)NC3CCCCC3)ccc2O1 | inactive | 
18 | C[C@H]1CCCCO[C@@H](CN(C)C(=O)Nc2ccc(C(F)(F)F)cc2)[C@@H](C)CN([C@@H](C)CO)C(=O)c2cc(NC(=O)CCC(F)(F)F)ccc2O1 |  | 31.7 µM

Second part, the compound after the results:

Row | activity change, negative = inhibition | AC50 | Structure (SMILES)
19 | inactive |  | C[C@@H]1CCCCO[C@@H](CN(C)C(=O)Nc2cccc3ccccc23)[C@H](C)CN([C@H](C)CO)C(=O)c2cc(NC(=O)C3CCCCC3)ccc2O1
20 |  | > 70 µM (inactive) | C[C@@H]1CN([C@@H](C)CO)C(=O)c2cc(NC(=O)C3CCCCC3)ccc2O[C@@H](C)CCCCO[C@H]1CN(C)C(=O)Nc1cccc2ccccc12
21 | inactive |  | C[C@@H]1CN([C@@H](C)CO)C(=O)c2cc(NC(=O)C3CCCCC3)ccc2O[C@@H](C)CCCCO[C@@H]1CN(C)C(=O)Nc1cccc2ccccc12
22 |  | > 70 µM (inactive) | C[C@@H]1CCCCO[C@@H](CN(C)C(=O)Nc2cccc3ccccc23)[C@@H](C)CN([C@@H](C)CO)C(=O)c2cc(NC(=O)C3CCCCC3)ccc2O1
23 |  | > 70 µM (inactive) | C[C@@H]1CCCCO[C@H](CN(C)C(=O)Nc2cccc3ccccc23)[C@@H](C)CN([C@@H](C)CO)C(=O)c2cc(NC(=O)C3CCCCC3)ccc2O1
24 |  | > 70 µM (inactive) | C[C@@H]1CN([C@H](C)CO)C(=O)c2cc(NC(=O)C3CCCCC3)ccc2O[C@@H](C)CCCCO[C@H]1CN(C)C(=O)Nc1cccc2ccccc12
25 | inactive |  | C[C@@H]1CCCCO[C@@H](CN(C)C(=O)Nc2cccc3ccccc23)[C@@H](C)CN([C@H](C)CO)C(=O)c2cc(NC(=O)C3CCCCC3)ccc2O1
26 |  | 6.2 µM | C[C@H](CO)N1C[C@H](C)[C@H](CN(C)C(=O)Nc2ccc(F)cc2)OCCCC[C@H](C)Oc2ccc(NC(=O)C3CCCCC3)cc2C1=O
27 | inactive |  | C[C@@H]1CCCCO[C@H](CN(C)C(=O)Nc2cccc3ccccc23)[C@H](C)CN([C@@H](C)CO)C(=O)c2cc(NC(=O)C3CCCCC3)ccc2O1
28 |  | 23.2 µM | C[C@H](CO)N1C[C@H](C)[C@H](CN(C)C(=O)Nc2cccc3ccccc23)OCCCC[C@H](C)Oc2ccc(NC(=O)NC3CCCCC3)cc2C1=O
29 |  | > 70 µM (inactive) | C[C@@H]1CN([C@H](C)CO)C(=O)c2cc(NC(=O)C3CCCCC3)ccc2O[C@@H](C)CCCCO[C@@H]1CN(C)C(=O)Nc1cccc2ccccc12
30 | inactive |  | C[C@H](CO)N1C[C@H](C)[C@@H](CN(C)C(=O)Nc2cccc3ccccc23)OCCCC[C@H](C)Oc2ccc(NC(=O)C3CCCCC3)cc2C1=O
31 | inactive |  | C[C@@H]1CCCCO[C@H](CN(C)C(=O)Nc2cccc3ccccc23)[C@@H](C)CN([C@H](C)CO)C(=O)c2cc(NC(=O)C3CCCCC3)ccc2O1
32 | inactive |  | C[C@@H]1CCCCO[C@@H](CN(C)C(=O)Nc2cccc3ccccc23)[C@H](C)CN([C@@H](C)CO)C(=O)c2cc(NC(=O)C3CCCCC3)ccc2O1
33 | inactive |  | C[C@H]1CCCCO[C@H](CN(C)C(=O)Nc2cccc3ccccc23)[C@@H](C)CN([C@@H](C)CO)C(=O)c2cc(NC(=O)C3CCCCC3)ccc2O1
34 |  | 12.6 µM | C[C@H](CO)N1C[C@H](C)[C@H](CN(C)C(=O)Nc2ccccc2)OCCCC[C@H](C)Oc2ccc(NC(=O)C3CCCCC3)cc2C1=O
35 | inactive |  | C[C@@H]1CCCCO[C@H](CN(C)C(=O)Nc2cccc3ccccc23)[C@H](C)CN([C@H](C)CO)C(=O)c2cc(NC(=O)C3CCCCC3)ccc2O1
